Laboratory results: patent publication US20030229066A1, “Novel heterocyclic urea derivatives and their use as dopamine D3 receptor ligands” (priority 2001, published 2003)

target: T1, cloned human dopamine D3 receptors (Homo sapiens, UniProt P35462); assay: [N-Methyl-3H]Spiroperidol binding to cloned human dopamine D3 receptors
T1 construct: expressed in transfected cells
From the text: [N-Methyl-^3H]Spiroperidol Binding to Cloned Human Dopamine D3 Receptors
This assay measures the in vitro activity of compounds on cloned human dopamine (D3) receptors and predicts the direct dopamine-blocking properties of putative neuropsychiatric agents at human dopamine D3 receptors.
The D3 gene was isolated from a human striatal cDNA library (Stratagene). The gene was sequenced and sub-cloned into the expression vector RC/RSV (Invitrogen). CHO (Chinese Hamster Ovary) cells were stably transfected with 10 μg of the D3/RSV plasmid using the DOTAP method from Boehringer Mannheim and 72 clones that were G418 resistant were isolated. Using mRNA and binding displacement data a single high expressing clone was identified. This clone was then grown in large batches for the purpose of developing a 96 well format assay.
The cells are harvested into 250 ml centrifuge tubes with 100 volumes of cold phosphate buffered saline (PBS) and spun down (1200×G for 10 min at 4° C.). The medium is removed and 100 ml PBS are added to each centrifuge tube, cells are resuspened and spun down again. The PBS is removed and the final pellet is homogenized in an appropriate volume of 10% DMSO with a polytron on ice at a medium setting.
For Kj determinations: [^3H]NMSP is made up to a concentration of 2.7 nM in buffer 2b, such that when 150 μl is added to each tube a final concentration of 0.4 nM is attained in the 1 ml assay. Samples of total CPM added are taken for each experiment to calculate the total ligand concentration.
5. S(-)-Eticlopride is obtained from Research Biochemicals International (RBI catalog number E-101). A refrigerated stock (good for up to a month) solution of S(-)-eticlopride is made at a concentration of 30 μM in buffer 2b. One hundred microliters are added to 3 wells for the determination of nonspecific binding (this yields a final concentration of 3 μM in the 1 ml assay).
For most assays, a 100 μM stock solution of the test compound is made up in a suitable solvent (usually <0.1% acetic acid) and serially diluted with buffer 2b, such that when 100 μl of drug is combined with the total 1 ml assay, final concentrations ranging from 10^−5-10^−8 M are attained. Characteristically eight concentrations are studied for each assay; however, higher or lower concentrations may be used, depending on the potency of the drug.
The 96-Well Packard Unifilters GF/B are incubated for >1 h at 25° C. in 0.1% polyethylamine (from 3,b). The cold tissue is added last and mixed on a orbital shaker for a few seconds and is then incubated at 37° C. for 30 min in a shaking water bath. The assay is stopped by rapid filtration through Packard Unifilter plates. The filter membranes are then washed with 15 ml of ice-cold 0.05 M Tris buffer. The filters are then dried (˜15 min under a heat lamp or incubated for 15 min in a 60° C. oven) and a bottom seal is applied. Then 40 μl of Packard Microscint 20 scintillation cocktail is added and a permanent topseal (Type P) is applied and heat sealed. The plates are then shaken on an orbital shaker for 1 h and placed in the Packard Topcount and counted for at least 5 minutes for each point.
Specific binding is defined as the difference between total binding and the binding in the presence of 3 μM S-(-)-eticlopride. Total binding is approximately 10% of the total added ligand. Cheng-Prusoff determination (Kj's) are performed using Prism software using a one-site competition curve analysis where the top and the bottom of the non-linear regression are held constant at 0% and 100% percent inhibition. The percent inhibition at each drug concentration is the mean of duplicate determinations.

T1 sequence (P35462 whole entry): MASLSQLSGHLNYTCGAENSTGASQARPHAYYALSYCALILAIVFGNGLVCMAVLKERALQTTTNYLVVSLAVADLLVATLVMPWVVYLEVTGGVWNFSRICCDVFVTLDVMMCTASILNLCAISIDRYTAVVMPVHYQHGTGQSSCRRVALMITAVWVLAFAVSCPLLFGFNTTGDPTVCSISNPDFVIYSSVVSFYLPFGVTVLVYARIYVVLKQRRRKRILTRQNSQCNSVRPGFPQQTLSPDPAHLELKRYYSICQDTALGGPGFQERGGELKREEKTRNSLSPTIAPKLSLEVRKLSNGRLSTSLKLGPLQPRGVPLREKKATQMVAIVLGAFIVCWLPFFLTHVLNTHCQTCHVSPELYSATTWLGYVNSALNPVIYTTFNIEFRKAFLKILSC

| SMILES | Ki |
| --- | --- |
| O=C(NCCCCN1CCCN(c2csc3cc(F)ccc23)CC1)Nc1cccc(F)c1 [compound 829217] | 3.51 nM |
| O=C(NCCCCN1CCCN(c2csc3cc(F)ccc23)CC1)Nc1cccc(C(F)(F)F)c1 [compound 829218] | 0.165 nM |
| COc1ccc(NC(=O)NCCCCN2CCCN(c3csc4cc(F)ccc34)CC2)cc1 [compound 829219] | 0.0926 nM |
| O=C(NCCCCN1CCCN(c2csc3cc(F)ccc23)CC1)Nc1ccc(Br)cc1 [compound 829220] | 18.1 nM |
| COc1cccc(NC(=O)NCCCCN2CCCN(c3csc4cc(F)ccc34)CC2)c1 [compound 829221] | 0.0961 nM |
| Cc1cccc(NC(=O)NCCCCN2CCN(c3noc4ccsc34)CC2)c1 [compound 829369] | 44.2 nM |
| O=C(NCCCCN1CCN(c2noc3ccsc23)CC1)Nc1cccc(Cl)c1 [compound 829370] | 4.91 nM |
| O=C(NCCCCN1CCN(c2noc3ccsc23)CC1)Nc1ccc(F)cc1F [compound 829371] | 55.2 nM |
| O=C(NCCCCN1CCN(c2noc3ccsc23)CC1)Nc1ccc(C(F)(F)F)cc1 [compound 829372] | 31.9 nM |
| O=C(NCCCCN1CCN(c2noc3ccsc23)CC1)Nc1cccc(Br)c1 [compound 829373] | 14.9 nM |
| O=C(NCCCCN1CCN(c2noc3ccsc23)CC1)Nc1ccc(OC(F)(F)F)cc1 [compound 829374] | 103 nM |
| O=C(NCCCCN1CCN(c2noc3ccsc23)CC1)Nc1cc(C(F)(F)F)cc(C(F)(F)F)c1 [compound 829375] | 176 nM |
| O=C(NCCCCN1CCN(c2noc3ccsc23)CC1)Nc1cc(F)ccc1F [compound 829377] | 87.9 nM |
| O=C(NCCCCN1CCN(c2noc3ccsc23)CC1)Nc1cc(Cl)cc(Cl)c1 [compound 829378] | 184 nM |
| CSc1ccc(NC(=O)NCCCCN2CCN(c3noc4ccsc34)CC2)cc1 [compound 829379] | 54.9 nM |
| Cc1ccc(NC(=O)NCCCCN2CCN(c3noc4ccsc34)CC2)cc1 [compound 829380] | 26.9 nM |
| CC(=O)c1cccc(NC(=O)NCCCCN2CCN(c3noc4ccsc34)CC2)c1 [compound 829381] | 46.5 nM |
| CCOc1ccc(NC(=O)NCCCCN2CCN(c3noc4ccsc34)CC2)cc1 [compound 829382] | 42.7 nM |
| N#Cc1cccc(NC(=O)NCCCCN2CCN(c3noc4ccsc34)CC2)c1 [compound 829383] | 102 nM |
| COc1cc(NC(=O)NCCCCN2CCN(c3noc4ccsc34)CC2)cc(OC)c1OC [compound 829384] | 190 nM |
| O=C(NCCCCN1CCN(c2noc3ccsc23)CC1)Nc1cc(C(F)(F)F)ccc1F [compound 829385] | 142 nM |

| SMILES | Ki |
| --- | --- |
| O=C(NCCCCN1CCN(c2noc3ccsc23)CC1)Nc1ccc(F)c(C(F)(F)F)c1 [compound 829387] | 114 nM |
| O=C(NCCCCN1CCN(c2noc3ccsc23)CC1)Nc1ccc(F)cc1 [compound 829388] | 44 nM |
| O=C(NCCCCN1CCN(c2noc3ccsc23)CC1)Nc1ccc(Cl)c(Cl)c1 [compound 829389] | 50.5 nM |
| O=C(NCCCCN1CCN(c2noc3ccsc23)CC1)Nc1ccc(Cl)cc1 [compound 829390] | 37.5 nM |
| O=C(NCCCCN1CCN(c2noc3ccsc23)CC1)Nc1ccc(Cl)cc1C(F)(F)F [compound 829392] | 487 nM |
| O=C(NCCCCN1CCN(c2noc3ccsc23)CC1)Nc1ccccc1F [compound 829393] | 190 nM |
| O=C(NCCCCN1CCN(c2noc3ccsc23)CC1)Nc1cccc(F)c1 [compound 829394] | 77.1 nM |
| O=C(NCCCCN1CCN(c2noc3ccsc23)CC1)Nc1cccc(C(F)(F)F)c1 [compound 829395] | 148 nM |
| COc1ccc(NC(=O)NCCCCN2CCN(c3noc4ccsc34)CC2)cc1 [compound 829396] | 121 nM |
| O=C(NCCCCN1CCN(c2noc3ccsc23)CC1)Nc1ccc(Br)cc1 [compound 829397] | 86.6 nM |
| COc1cccc(NC(=O)NCCCCN2CCN(c3noc4ccsc34)CC2)c1 [compound 829398] | 44.1 nM |
| CC(C)c1ccc(NC(=O)NCCCCN2CCN(c3noc4ccsc34)CC2)cc1 [compound 829407] | 452 nM |
| O=C(NCCCCN1CCCN(c2noc3ccsc23)CC1)Nc1cccc(Cl)c1 [compound 829409] | 379 nM |
| O=C(NCCCCN1CCCN(c2noc3ccsc23)CC1)Nc1ccc(C(F)(F)F)cc1 [compound 829411] | 670 nM |
| O=C(NCCCCN1CCCN(c2noc3ccsc23)CC1)Nc1cc(C(F)(F)F)cc(C(F)(F)F)c1 [compound 829414] | 546 nM |
| O=C(NCCCCN1CCCN(c2noc3ccsc23)CC1)Nc1cc(C(F)(F)F)ccc1Cl [compound 829415] | 345 nM |
| O=C(NCCCCN1CCCN(c2noc3ccsc23)CC1)Nc1ccc(Cl)c(C(F)(F)F)c1 [compound 829416] | 327 nM |
| O=C(NCCCCN1CCCN(c2noc3ccsc23)CC1)Nc1cc(F)ccc1F [compound 829417] | 338 nM |
| O=C(NCCCCN1CCCN(c2noc3ccsc23)CC1)Nc1cc(Cl)cc(Cl)c1 [compound 829418] | 52.9 nM |
| Cc1ccc(NC(=O)NCCCCN2CCCN(c3noc4ccsc34)CC2)cc1 [compound 829419] | 138 nM |
| CSc1ccc(NC(=O)NCCCCN2CCCN(c3noc4ccsc34)CC2)cc1 [compound 829420] | 233 nM |

| SMILES | Ki |
| --- | --- |
| CC(=O)c1cccc(NC(=O)NCCCCN2CCCN(c3noc4ccsc34)CC2)c1 [compound 829421] | 173 nM |
| CC(C)c1ccc(NC(=O)NCCCCN2CCCN(c3noc4ccsc34)CC2)cc1 [compound 829422] | 466 nM |
| O=C(NCCCCN1CCCN(c2noc3ccsc23)CC1)Nc1cc(C(F)(F)F)ccc1F [compound 829425] | 539 nM |
| O=C(NCCCCN1CCCN(c2noc3ccsc23)CC1)Nc1ccc(F)c(C(F)(F)F)c1 [compound 829427] | 459 nM |
| O=C(NCCCCN1CCCN(c2noc3ccsc23)CC1)Nc1ccc(F)cc1 [compound 829428] | 747 nM |
| O=C(NCCCCN1CCCN(c2noc3ccsc23)CC1)Nc1ccc(Cl)c(Cl)c1 [compound 829429] | 111 nM |
| O=C(NCCCCN1CCCN(c2noc3ccsc23)CC1)Nc1cccc(F)c1 [compound 829431] | 153 nM |
| O=C(NCCCCN1CCCN(c2noc3ccsc23)CC1)Nc1cccc(C(F)(F)F)c1 [compound 829432] | 226 nM |
| COc1ccc(NC(=O)NCCCCN2CCCN(c3noc4ccsc34)CC2)cc1 [compound 829433] | 216 nM |
| O=C(NCCCCN1CCCN(c2noc3ccsc23)CC1)Nc1ccc(Br)cc1 [compound 829434] | 197 nM |
| CCOc1ccc(NC(=O)NCCCCN2CCC(c3noc4c(C)csc34)CC2)cc1 [compound 829873] | 27.7 nM |
| CCOc1ccc(NC(=O)N(CCCCN2CCC(c3noc4c(C)csc34)CC2)C(=O)Nc2ccc(OCC)cc2)cc1 [compound 829874] | 360 nM |
| Cc1csc2c(C3CCN(CCCCN(C(=O)Nc4cccc(F)c4)C(=O)Nc4cccc(F)c4)CC3)noc12 [compound 829875] | 94.7 nM |
| COc1cccc(NC(=O)N(CCCCN2CCC(c3noc4c(C)csc34)CC2)C(=O)Nc2cccc(OC)c2)c1 [compound 829876] | 77.1 nM |
| Cc1cccc(NC(=O)NCCCCN2CCC(c3noc4c(C)csc34)CC2)c1 [compound 829878] | 8.78 nM |
| Cc1csc2c(C3CCN(CCCCNC(=O)Nc4ccccc4F)CC3)noc12 [compound 829879] | 354 nM |
| Cc1csc2c(C3CCN(CCCCNC(=O)Nc4cccc(C(F)(F)F)c4Cl)CC3)noc12 [compound 829882] | 143 nM |
| Cc1ccc(NC(=O)NCCCCN2CCC(c3noc4cc(C)sc34)CC2)cc1 [compound 830517] | 9.04 nM |
| COc1ccc(NC(=O)NCCCCN2CCC(c3noc4cc(C)sc34)CC2)cc1 [compound 830518] | 9.16 nM |
| O=C(NC[C@@H]1C[C@H]1CN1CCN(c2csc3cc(C(F)(F)F)ccc23)CC1)Nc1cccc(F)c1 [compound 832786] | 61.6 nM |
| COc1ccc(NC(=O)NC[C@@H]2C[C@H]2CN2CCN(c3csc4cc(C(F)(F)F)ccc34)CC2)cc1 [compound 832810] | 33.5 nM |
